The record followed here is patent publication US7632930B2, “Oligosaccharide derivative” (Sankyo Company Limited, priority 2003, dated 2009).

Test [1] has as its target T1, human pancreatic α-amylase (HPA) (Homo sapiens, UniProt P04746).
T1 construct: purchased International Reagents Caribzyme AMY
T1 sequence (P04746 16-511): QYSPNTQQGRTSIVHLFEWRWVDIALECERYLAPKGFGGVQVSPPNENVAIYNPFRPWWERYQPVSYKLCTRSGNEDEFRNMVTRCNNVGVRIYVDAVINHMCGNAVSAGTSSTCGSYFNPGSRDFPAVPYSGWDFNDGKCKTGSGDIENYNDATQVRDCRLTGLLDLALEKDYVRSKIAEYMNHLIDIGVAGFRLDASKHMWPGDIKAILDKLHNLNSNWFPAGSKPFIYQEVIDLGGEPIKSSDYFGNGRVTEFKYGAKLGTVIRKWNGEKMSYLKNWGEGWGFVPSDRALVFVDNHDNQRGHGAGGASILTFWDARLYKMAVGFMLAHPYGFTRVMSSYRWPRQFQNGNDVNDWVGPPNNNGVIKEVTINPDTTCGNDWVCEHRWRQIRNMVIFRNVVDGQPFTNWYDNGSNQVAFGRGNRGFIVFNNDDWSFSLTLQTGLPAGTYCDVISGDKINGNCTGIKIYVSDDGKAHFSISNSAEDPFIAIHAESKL
Kind of test: α-Amylase inhibitory action (blue starch, Neo-Amylase Test). The format is biochemical. To be noted: final concentration required to inhibit the activity of the HPA solution by 50%; 37° C.
Method: “Caribzyme AMY” (International Reagents) was used for the human pancreatic α-amylase (HPA). Purified water was added to the commercially available HPA and dissolved to a concentration of 200 IU/l to prepare an α-amylase solution. The activity of the α-amylase was measured using a commercially available α-amylase assay reagent (“Neo-Amylase Test Daiichi”, Daiichi Pure Chemicals).
Each test compound was prepared with distilled water to a final concentration of 0.1 to 30 μg/ml, respectively.
After incubating for 10 minutes at 37° C., a blue starch tablet (“Neo-Amylase Test Daiichi”, Daiichi Pure Chemicals) was added followed by stirring for about 10 seconds with a mixer and heating for 30 minutes at 37° C. […] In addition, distilled water was added instead of α-amylase for use as a blank. […] Inhibition rate(%)=[1−{(Absorbance of control)−(absorbance of blank)}/{(absorbance when inhibitor added)−(absorbance of blank)}]×100

For test [2], the system named is genetically obese diabetic mice (C57BL/KsJ-db/db mice). Kind of test: Blood glucose lowering action in genetically obese diabetic mice. The format is in vivo. As to conditions: 0.005% (w/w) in diet, freely ingested for 1 week, vs control group. An excerpt:
Commercially available, genetically obese diabetic mice (C57BL/KsJ-db/db mice, males, age 16 weeks at the time of testing, supplied by Clea Japan).
(§1) (2) Experimental Methods and Results
A test compound was mixed into a refined laboratory animal diet (carbohydrate content: 65.95% (w/w), Oriental Yeast) to a test compound concentration of 0.005% (w/w) and allowed to be freely ingested by diabetic mice for 1 week in groups of 5 mice per group. A control group was allowed similar unrestricted access to the same feed with the exception of not containing the test compound.
Blood glucose levels were measured before the start of dosing and one week after the start of dosing. Blood samples were collected from a tail vein and blood glucose levels were measured using a blood glucose analyzer (Glucoloader GXT, A & T) to calculate the blood glucose lowering rate (%) according to the following formula. Blood glucose lowering rate(%)=[1−(compound dose group blood glucose level/control group blood glucose level)]×100

Another test has as its system normal mice (ddY mice). Kind of test: Postprandial hyperglycemia inhibitory action (cornstarch loading). The format is in vivo. As to conditions: ddY mice fasted 20 hours; oral 0.3 mg (test compound)/2 g (cornstarch)/kg; AUC of increase in blood glucose levels, 0.5-3 hours after dosing, vs control group. The method, then:
Commercially available normal mice (ddY mice, males, age 8 weeks at the time of testing, supplied by Japan SLC).
as §1
For the dose group, a test compound and commercially available cornstarch were mixed well with 0.5% carboxymethyl cellulose to prepare a suspension that was orally administered at 0.3 mg (test compound)/2 g (cornstarch)/kg (body weight) to five mice that had been fasted in advance for 20 hours. The control group was administered with a similar suspension in the same manner with the exception of not containing the test compound.
Blood glucose levels were measured using a blood glucose analyzer (Glucoloader GXT, A & T). Inhibition rate(%)=[1−(dose group AUC/control group blood glucose increase AUC)]×100

What is called IC50 is the concentration that gives 50% inhibition. Turning to `C[C@H]1O[C@H](O[C@H]2[C@H](O)[C@@H](O)[C@@H](O[C@H]3[C@H](O)CN[C@@H]3CO)O[C@@H]2CO)[C@H](O)[C@@H](O)[C@@H]1O` [Example 1, (2R,3R,4R)-4-Hydroxy-2-(hydroxymethyl)pyrrolidin-3-yl 4-O-(6-deoxy-α-D-glucopyranosyl)-α-D-glucopyranoside], half-maximal inhibition in test [1] (IC50) required 1590 nM.
As to `C[C@H]1O[C@@H](O[C@H]2[C@H](O)[C@@H](O)[C@@H](O[C@H]3[C@H](O)CN[C@@H]3CO)O[C@@H]2CO)[C@H](O)[C@@H](O)[C@@H]1O` [Example 2, (2R,3R,4R)-4-Hydroxy-2-(hydroxymethyl)pyrrolidin-3-yl 4-O-(6-deoxy-β-D-glucopyranosyl)-α-D-glucopyranoside], the “Blood Glucose Lowering Rate” value in test [2] came to 47%. The molecule also had an IC50 in test [1] of 453 nM. The “Inhibition Rate” value in the test with normal mice (ddY mice) amounted to 64%.
For `C[C@H]1O[C@@H](O[C@H]2[C@H](O)[C@@H](O)[C@@H](O[C@H]3[C@H](O)[C@@H](CO)N[C@@H]3CO)O[C@@H]2CO)[C@H](O)[C@@H](O)[C@@H]1O` [Example 7, (2R,3R,4R,5R)-2,5-Dihydroxymethyl-4-hydroxypyrrolidin-3-yl 4-O-(6-deoxy-β-D-glucopyranosyl)-α-D-glucopyranoside], in test [1], the midpoint of inhibition, the IC50, lay at 8480 nM. In other words, the single-digit micromolar range.
`COC[C@H]1O[C@@H](O[C@H]2[C@H](O)[C@@H](O)[C@@H](O[C@H]3[C@H](O)CN[C@@H]3CO)O[C@@H]2CO)[C@H](O)[C@@H](O)[C@@H]1O` [Example 8, (2R,3R,4R)-4-Hydroxy-2-hydroxymethyl-pyrrolidin-3-yl 4-O-(6-methoxy-6-deoxy-β-D-glucopyranosyl)-D-glucopyranoside]: in test [1], the IC50 was 848 nM.
As for `C[C@H]1O[C@H](O[C@H]2[C@H](O)[C@@H](O)[C@H](O[C@H]3[C@H](O)CN[C@@H]3CO)O[C@@H]2CO)[C@H](O)[C@@H](O)[C@@H]1O` [Example 13, (2R,3R,4R)-4-Hydroxy-2-hydroxymethyl-pyrrolidin-3-yl 4-O-(6-deoxy-α-D-glucopyranosyl)-β-D-glucopyranoside], in test [1], the IC50 is 9060 nM.
With `C[C@H]1O[C@H](O[C@H]2[C@H](O)[C@@H](O)[C@@H](O[C@H]3[C@H](O)[C@@H](O)[C@H](N)[C@@H]3CO)O[C@@H]2CO)[C@H](O)[C@@H](O)[C@@H]1O` [Example 14, (1R,2S,3R,4R,5R)-1-Amino-2,3-dihydroxy-5-hydroxymethyl-cyclopent-4-yl 4-O-(6-deoxy-α-D-glucopyranosyl)-α-D-glucopyranoside], the IC50 in test [1] was 2120 nM.
In turn, `C[C@H]1O[C@@H](O[C@H]2[C@H](O)[C@@H](O)[C@@H](O[C@H]3[C@H](O)[C@@H](O)[C@H](N)[C@@H]3CO)O[C@@H]2CO)[C@H](O)[C@@H](O)[C@@H]1O` [Example 15, (1R,2S,3R,4R,5R)-1-Amino-2,3-dihydroxy-5-hydroxymethyl-cyclopent-4-yl 4-O-(6-deoxy-β-D-glucopyranosyl)-α-D-glucopyranoside] gave an IC50 in test [1] of 1270 nM.
